Experimental data taken from PubChem BioAssay (NCI).
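In this assay, cells in 96-well plates receive the compound at five concentrations for 48 hours. Endpoints are linearly interpolated between the surrounding concentrations. GI50 is the concentration that inhibits growth by half. TGI: concentration producing complete growth inhibition.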

Assays:
Test in all cases: NCI anticancer screen, dose series, 48 h
NCI-H23 lung = tested on: NCI-H23 lung
UACC-62 melanoma = tested on: UACC-62 melanoma
UACC-257 melanoma = tested on: UACC-257 melanoma
M14 melanoma = tested on: M14 melanoma
ACHN renal = tested on: ACHN renal
HL-60(TB) leukemia = tested on: HL-60(TB) leukemia
K-562 leukemia = tested on: K-562 leukemia
OVCAR-4 ovarian = tested on: OVCAR-4 ovarian
SN12C renal = tested on: SN12C renal
MALME-3M melanoma = tested on: MALME-3M melanoma
TK-10 renal = tested on: TK-10 renal
NCI/ADR-RES ovarian = tested on: NCI/ADR-RES ovarian
MDA-MB-231 breast = tested on: MDA-MB-231 breast
HOP-62 NSCLC = tested on: HOP-62 NSCLC
OVCAR-3 ovarian = tested on: OVCAR-3 ovarian
SR leukemia = tested on: SR leukemia
HS 578T breast = tested on: HS 578T breast
RXF 393 renal = tested on: RXF 393 renal
SF-539 CNS = tested on: SF-539 CNS
HCT-116 colon = tested on: HCT-116 colon
A498 renal = tested on: A498 renal
MDA-MB-435 = tested on: MDA-MB-435
KM12 colon = tested on: KM12 colon
RPMI-8226 leukemia = tested on: RPMI-8226 leukemia
HCC-2998 colon = tested on: HCC-2998 colon
SK-MEL-28 melanoma = tested on: SK-MEL-28 melanoma
NCI-H522 lung = tested on: NCI-H522 lung
OVCAR-5 ovarian = tested on: OVCAR-5 ovarian
HCT-15 colon = tested on: HCT-15 colon
NCI-H226 lung = tested on: NCI-H226 lung
SW-620 colon = tested on: SW-620 colon
COLO 205 colon = tested on: COLO 205 colon
SK-MEL-5 melanoma = tested on: SK-MEL-5 melanoma
BT-549 breast = tested on: BT-549 breast
LOX IMVI melanoma = tested on: LOX IMVI melanoma
MOLT-4 leukemia = tested on: MOLT-4 leukemia
786-0 renal = tested on: 786-0 renal
A549 NSCLC = tested on: A549 NSCLC
HT29 colon = tested on: HT29 colon
HOP-92 NSCLC = tested on: HOP-92 NSCLC
SNB-19 CNS = tested on: SNB-19 CNS
CAKI-1 renal = tested on: CAKI-1 renal
MCF7 breast = tested on: MCF7 breast
DU-145 prostate = tested on: DU-145 prostate
SK-MEL-2 melanoma = tested on: SK-MEL-2 melanoma
U251 CNS = tested on: U251 CNS
EKVX NSCLC = tested on: EKVX NSCLC
CCRF-CEM leukemia = tested on: CCRF-CEM leukemia
PC-3 prostate = tested on: PC-3 prostate
NCI-H460 lung = tested on: NCI-H460 lung
UO-31 renal = tested on: UO-31 renal
SF-295 CNS = tested on: SF-295 CNS
SK-OV-3 ovarian = tested on: SK-OV-3 ovarian
SNB-75 CNS = tested on: SNB-75 CNS
OVCAR-8 ovarian = tested on: OVCAR-8 ovarian
T-47D breast = tested on: T-47D breast
SF-268 CNS = tested on: SF-268 CNS
IGROV1 ovarian = tested on: IGROV1 ovarian

## COc1ccc(-n2cc(-c3cc(OC)c(OC)c(OC)c3)nc2SCc2ccc(Cl)cc2)cc1OC
NCI-H23 lung
  GI50: > 100 µM
  TGI: > 100 µM
UACC-62 melanoma
  GI50: 35.5 µM
  TGI: > 100 µM
UACC-257 melanoma
  GI50: > 100 µM
  TGI: > 100 µM
M14 melanoma
  GI50: > 100 µM
  TGI: > 100 µM
ACHN renal
  GI50: > 100 µM
  TGI: > 100 µM
HL-60(TB) leukemia
  GI50: 78 µM
  TGI: > 100 µM
K-562 leukemia
  GI50: 87.5 µM
  TGI: > 100 µM
OVCAR-4 ovarian
  GI50: 71.9 µM
  TGI: > 100 µM
SN12C renal
  GI50: > 100 µM
  TGI: > 100 µM
MALME-3M melanoma
  GI50: > 100 µM
  TGI: > 100 µM
TK-10 renal
  GI50: > 100 µM
  TGI: > 100 µM
NCI/ADR-RES ovarian
  GI50: 81.6 µM
  TGI: > 100 µM
MDA-MB-231 breast
  GI50: > 100 µM
  TGI: > 100 µM
HOP-62 NSCLC
  GI50: > 100 µM
  TGI: > 100 µM
OVCAR-3 ovarian
  GI50: > 100 µM
  TGI: > 100 µM
SR leukemia
  GI50: > 100 µM
  TGI: > 100 µM
HS 578T breast
  GI50: 66.5 µM
  TGI: > 100 µM
RXF 393 renal
  GI50: > 100 µM
  TGI: > 100 µM
SF-539 CNS
  GI50: > 100 µM
  TGI: > 100 µM
HCT-116 colon
  GI50: > 100 µM
  TGI: > 100 µM
A498 renal
  GI50: 89 µM
  TGI: > 100 µM
MDA-MB-435
  GI50: > 100 µM
  TGI: > 100 µM
KM12 colon
  GI50: > 100 µM
  TGI: > 100 µM
RPMI-8226 leukemia
  GI50: > 100 µM
  TGI: > 100 µM
HCC-2998 colon
  GI50: > 100 µM
  TGI: > 100 µM
SK-MEL-28 melanoma
  GI50: > 100 µM
  TGI: > 100 µM
NCI-H522 lung
  GI50: 41.2 µM
  TGI: > 100 µM
OVCAR-5 ovarian
  GI50: > 100 µM
  TGI: > 100 µM
HCT-15 colon
  GI50: 30.5 µM
  TGI: > 100 µM
NCI-H226 lung
  GI50: > 100 µM
  TGI: > 100 µM
SW-620 colon
  GI50: > 100 µM
  TGI: > 100 µM
COLO 205 colon
  GI50: > 100 µM
  TGI: > 100 µM
SK-MEL-5 melanoma
  GI50: 41.7 µM
  TGI: > 100 µM
BT-549 breast
  GI50: > 100 µM
  TGI: > 100 µM
LOX IMVI melanoma
  GI50: > 100 µM
  TGI: > 100 µM
MOLT-4 leukemia
  GI50: > 100 µM
  TGI: > 100 µM
786-0 renal
  GI50: > 100 µM
  TGI: > 100 µM
A549 NSCLC
  GI50: 53.2 µM
  TGI: > 100 µM
HT29 colon
  GI50: > 100 µM
  TGI: > 100 µM
HOP-92 NSCLC
  GI50: 65.5 µM
  TGI: > 100 µM
SNB-19 CNS
  GI50: > 100 µM
  TGI: > 100 µM
CAKI-1 renal
  GI50: > 100 µM
  TGI: > 100 µM
MCF7 breast
  GI50: 92.6 µM
  TGI: > 100 µM
DU-145 prostate
  GI50: > 100 µM
  TGI: > 100 µM
SK-MEL-2 melanoma
  GI50: > 100 µM
  TGI: > 100 µM
U251 CNS
  GI50: > 100 µM
  TGI: > 100 µM
EKVX NSCLC
  GI50: 95.3 µM
  TGI: > 100 µM
CCRF-CEM leukemia
  GI50: > 100 µM
  TGI: > 100 µM
PC-3 prostate
  GI50: 35.3 µM
  TGI: > 100 µM
NCI-H460 lung
  GI50: > 100 µM
  TGI: > 100 µM
UO-31 renal
  GI50: 27.8 µM
  TGI: > 100 µM
SF-295 CNS
  GI50: > 100 µM
  TGI: > 100 µM
SK-OV-3 ovarian
  GI50: > 100 µM
  TGI: > 100 µM
SNB-75 CNS
  GI50: 9.82 µM
  TGI: > 100 µM
OVCAR-8 ovarian
  GI50: > 100 µM
  TGI: > 100 µM
T-47D breast
  GI50: 15.1 µM
  TGI: > 100 µM
SF-268 CNS
  GI50: > 100 µM
  TGI: > 100 µM

## Cc1cc(F)c(C(=O)Nc2cccc(-c3nncn3C(C)C)n2)cc1-n1cnc(C2CC2)c1
NCI-H23 lung
  GI50: 12 µM
  TGI: 46.6 µM
UACC-62 melanoma
  GI50: 14.1 µM
  TGI: 48 µM
UACC-257 melanoma
  GI50: 32.8 µM
  TGI: 85.7 µM
ACHN renal
  GI50: 10.4 µM
  TGI: 27.7 µM
HL-60(TB) leukemia
  GI50: 16.2 µM
  TGI: 45.3 µM
OVCAR-4 ovarian
  GI50: 13.1 µM
  TGI: 97 µM
SN12C renal
  GI50: 15.6 µM
  TGI: 62.4 µM
MALME-3M melanoma
  GI50: 23.3 µM
  TGI: 72.1 µM
TK-10 renal
  GI50: 8.12 µM
  TGI: 92.5 µM
NCI/ADR-RES ovarian
  GI50: 17.7 µM
  TGI: 93.2 µM
MDA-MB-231 breast
  GI50: 18.1 µM
  TGI: 91.5 µM
HOP-62 NSCLC
  GI50: 16.6 µM
  TGI: 58.8 µM
OVCAR-3 ovarian
  GI50: 12.5 µM
  TGI: > 100 µM
SR leukemia
  GI50: 4.42 µM
  TGI: > 100 µM
HS 578T breast
  GI50: 26.6 µM
  TGI: > 100 µM
RXF 393 renal
  GI50: 20.6 µM
  TGI: 49.1 µM
SF-539 CNS
  GI50: 11.6 µM
  TGI: 34.4 µM
HCT-116 colon
  GI50: 8.25 µM
  TGI: > 100 µM
A498 renal
  GI50: 14.2 µM
  TGI: 62.6 µM
MDA-MB-435
  GI50: 11.4 µM
  TGI: > 100 µM
KM12 colon
  GI50: 20.7 µM
  TGI: 95.6 µM
IGROV1 ovarian
  GI50: 6.89 µM
  TGI: 61.7 µM
RPMI-8226 leukemia
  GI50: 7.54 µM
  TGI: 35.3 µM
HCC-2998 colon
  GI50: 14.3 µM
  TGI: > 100 µM
SK-MEL-28 melanoma
  GI50: 20.9 µM
  TGI: 64.7 µM
NCI-H522 lung
  GI50: 8.56 µM
  TGI: 44.1 µM
OVCAR-5 ovarian
  GI50: 19.9 µM
  TGI: > 100 µM
HCT-15 colon
  GI50: 15.6 µM
  TGI: 96.4 µM
NCI-H226 lung
  GI50: 19.5 µM
  TGI: 80.7 µM
SW-620 colon
  GI50: 20.8 µM
  TGI: > 100 µM
COLO 205 colon
  GI50: 4.2 µM
  TGI: 21.3 µM
SK-MEL-5 melanoma
  GI50: 11.3 µM
  TGI: 23.6 µM
BT-549 breast
  GI50: 11.7 µM
  TGI: 54.8 µM
LOX IMVI melanoma
  GI50: 14.4 µM
  TGI: 35.9 µM
MOLT-4 leukemia
  GI50: 10.1 µM
  TGI: 54.2 µM
786-0 renal
  GI50: 17.1 µM
  TGI: > 100 µM
A549 NSCLC
  GI50: 15.2 µM
  TGI: 74 µM
HT29 colon
  GI50: 18.2 µM
  TGI: > 100 µM
HOP-92 NSCLC
  GI50: 8.23 µM
  TGI: > 100 µM
SNB-19 CNS
  GI50: 25.5 µM
  TGI: > 100 µM
CAKI-1 renal
  GI50: 10.5 µM
  TGI: > 100 µM
MCF7 breast
  GI50: 9.48 µM
  TGI: 55.2 µM
DU-145 prostate
  TGI: > 100 µM
SK-MEL-2 melanoma
  GI50: 23.9 µM
  TGI: 58.1 µM
U251 CNS
  GI50: 17.1 µM
  TGI: > 100 µM
EKVX NSCLC
  GI50: 13.1 µM
  TGI: 52.3 µM
CCRF-CEM leukemia
  GI50: 21 µM
  TGI: > 100 µM
PC-3 prostate
  GI50: 16.6 µM
  TGI: 92.4 µM
NCI-H460 lung
  GI50: 14.5 µM
  TGI: 96.4 µM
UO-31 renal
  GI50: 3.05 µM
  TGI: 23.7 µM
SF-295 CNS
  GI50: 13.3 µM
  TGI: 80.9 µM
SK-OV-3 ovarian
  GI50: 24.5 µM
  TGI: > 100 µM
SNB-75 CNS
  GI50: 10.3 µM
  TGI: 64.3 µM
OVCAR-8 ovarian
  GI50: 18.3 µM
  TGI: 68 µM
T-47D breast
  GI50: 2.01 µM
  TGI: 9.95 µM
SF-268 CNS
  GI50: 21.5 µM
  TGI: > 100 µM
